Laboratory results from PubChem BioAssay AID602211 (Sanford-Burnham Center for Chemical Genomics, 2012).
Activity calls are given as the source filed them.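 The calls were made as follows: active = mean IC50 at or below 10 µM; inactive = the rest.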

test system: H9c2 cardiomyocytes, H2O2 protection, ATPLite viability, 2 h; assay: protection of H9c2 cardiomyocytes from H2O2 death, dose response, cell-based, ATPLite luminescence, set 2 (AID 602211);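 also: potency is for protection so actives keep ATP signal up against peroxide killing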

| Structure (SMILES) | IC50 |
| --- | --- |
| CC(=O)Nc1cc(-c2ccccc2)cn2c(-c3cccc(C(C)=O)c3)cnc12 | 8.67 µM |
| CC(=O)c1cccc(NC(=O)Nc2ccc3c(c2)N(C)C(=O)CS3)c1 | 3.53 µM |
| COCCCNC(=O)/C(C#N)=C1\N=C(NC(=O)c2cccs2)c2ccccc21 | > 79 µM (inactive) |
| COc1ccc(CCCNC(=O)C2(C)Cc3c(-c4ccc(NC(C)=O)cc4)ccnc3O2)cc1 (configuration not stated) | > 79 µM (inactive) |
| CC(C)OCCCNC(=O)CCC(=O)NNc1nc2ccccc2c2nc(-c3ccccc3)nn12 | 19.8 µM (inactive) |
| O=C(c1cc(=O)[nH]c2ccccc12)N1CCN(S(=O)(=O)c2ccc(Cl)cc2)CC1 | 1.1 µM |
| Cc1nn(C)cc1C(C(=O)NC1CCCCC1)N(C(=O)Cc1cccs1)c1ccc(Cl)cc1 (configuration not stated) | 8.18 µM |
| COc1cc(OC)cc(C(=O)Nc2ccc(-c3nc4ccccc4o3)cc2)c1 | > 79 µM (inactive) |
| CCn1c(=O)cc(OCC(=O)Nc2ccccc2C#N)c2ccccc21 | 11.9 µM (inactive) |
| COc1ccc(-c2nn3c(-c4ccco4)nnc3s2)cc1OC | 12.3 µM (inactive) |
| CCC(=O)N1CCN(c2ccccc2NC(=O)c2ccc(-c3cccc([N+](=O)[O-])c3)o2)CC1 | 1.99 µM |
| COc1cccc(NC(=O)c2oc3ccc(S(=O)(=O)N4CCOCC4)cc3c2C)c1 | 1.98 µM |
| NC(=O)c1cc2ccccc2o/c1=N\NC(=O)c1ccc(F)cc1 | 4.67 µM |
| Cc1ccc(C)c(C(=O)Nc2cc(C)nn2-c2nc(C)cc(C)n2)c1 | 65.6 µM (inactive) |
| CC(=O)c1ccc(N2CCN(C(=O)c3cc(-c4cccnc4)nc4ccc(Br)cc34)CC2)cc1 | 3.78 µM |
| CC(C)(C)OC(=O)C[C@@H]1C/C=C\C[C@@H](CC(=O)N[C@@H](CO)Cc2ccccc2)C(=O)NC[C@@H](c2ccccc2)OC1=O | 12.9 µM (inactive) |
| COc1ccc(-c2nnc(-c3cc(OC)c(OC)c(OC)c3)o2)cc1OC | 43.9 µM (inactive) |
| COc1cc(NC(=O)c2cc3nc(-c4ccccc4)cc(-c4ccccc4)n3n2)cc(OC)c1OC | 3.87 µM |
| COC(=O)c1ccccc1NC(=O)/C=C/c1cc(OC)c(OC)c(OC)c1 | 10.9 µM (inactive) |
| COc1ccc(OC)c(/C=N/NC(=O)c2cc3c(OC)c(OC)ccc3[nH]2)c1 | 3.48 µM |
| CCOc1cccc(-c2nn3c(-c4ccccn4)nnc3s2)c1 | 6.55 µM |
| O=C(CNC(=O)c1nc[nH]c1C(=O)NCc1ccccc1)OCc1ccccc1 | > 79 µM (inactive) |
| Cc1ccc(-c2nn3c(-c4ccco4)nnc3c3ccccc23)cc1S(=O)(=O)NCC1CCCO1 (configuration not stated) | 10.6 µM (inactive) |

| Structure (SMILES) | IC50 |
| --- | --- |
| O=C(COc1cccc(NC(=O)c2cccc([N+](=O)[O-])c2)c1)c1ccc(F)cc1 | 9.26 µM |
| COc1cccc(-c2cnc3c(NC(C)=O)cc(-c4cc(OC)c(OC)c(OC)c4)cn23)c1 | 3.27 µM |
| COc1ccc(-c2cc(C(=O)Nc3ccccc3N3CCOCC3)c3ccccc3n2)cc1OC | 4.52 µM |
| COc1ccc(Nc2nnc(-c3ccc(O)cc3)c3ccccc23)cc1C(N)=O | 11.3 µM (inactive) |
| COc1ccc(-n2cc(-c3ccccc3)c3c(N4CCOCC4)ncnc32)cc1 | 4.02 µM |
| COCCn1ccc2c(OCC(=O)Nc3ccccc3OC)cccc2c1=O | > 79 µM (inactive) |
| C[C@H](CO)N1C[C@H](C)[C@@H](CN(C)S(=O)(=O)c2cccs2)Oc2ccc(NC(=O)Nc3ccccc3)cc2C1=O | 16 µM (inactive) |
| COc1cc(-c2cc(NC(C)=O)c3ncc(-c4ccccc4)n3c2)cc(OC)c1OC | 6.75 µM |
| NC(=O)c1nsc(C(=O)N(c2ccccc2)C(C(=O)NC2CCCC2)c2ccc3ncccc3c2)c1N (configuration not stated) | 3.35 µM |
| Cn1nc(C(=O)Nc2nc(-c3ccccn3)cs2)c2ccccc2c1=O | 6.13 µM |
| Cc1ccccc1NP(=O)(Oc1ccccc1F)Oc1ccccc1F | > 79 µM (inactive) |
| Cc1nc2c(c(=O)n1CCC1=CCCCC1)c1nc3ccccc3nc1n2/N=C/c1ccccc1 | 10.5 µM (inactive) |
| Cc1ccccc1C1c2[nH]c3ccccc3c2C[C@H]2C(=O)N(c3ccccc3C(=O)NCCCN3CCOCC3)C(=O)N12 (some centres not stated) | 17.2 µM (inactive) |
| CCOC(=O)C1CCN(c2cc3c(cc2NC(=O)c2ccc(F)cc2)n(C)c(=O)n3C)CC1 | 25.8 µM (inactive) |
| COc1ccc(CC(=O)N(Cc2ccccc2)c2ccccc2)cc1S(=O)(=O)N1CCOCC1 | 2.24 µM |
| COc1ccc(C(=O)Nc2cccc(NC(=O)c3ccc(OC)c(OC)c3)n2)cc1OC | 1.49 µM |
| Cc1ccc2nsnc2c1S(=O)(=O)N(Cc1ccco1)Cc1cc2cccc(C)c2[nH]c1=O | 13.2 µM (inactive) |
| COc1nc(N/N=C/c2cc3c(cc2Br)OCO3)nc(N2CCOCC2)n1 | 11.9 µM (inactive) |
| COc1cccc(CN(C)C(=O)C(Cc2ccccc2)NC(=O)c2ccccc2)c1OC (configuration not stated) | 6.8 µM |
| Cc1nc2ccccc2c2c(N)c3ccccc3n12 | 14.6 µM (inactive) |
| CCC(Oc1ccccc1)C(=O)Nc1ccccc1C(=O)N1CCCCC1 (configuration not stated) | 36.2 µM (inactive) |
| CC(C)(C)NC(=O)c1cccc(NC(=O)c2ccc(NC(=O)c3ccco3)cc2)c1 | > 79 µM (inactive) |
| COc1ccc(OC)c(N(CC(=O)Nc2cccnc2)S(=O)(=O)c2ccc(OC)c(OC)c2)c1 | 16.5 µM (inactive) |

| Structure (SMILES) | IC50 |
| --- | --- |
| COc1ccccc1CN(C)C(=O)c1cc(-c2cc(OC)c(OC)c(OC)c2)nc2ccccc12 | > 79 µM (inactive) |
| COc1cc(/C=C(\C#N)C(=O)Nc2ccccc2F)ccc1OCCN1CCOCC1 | 15.9 µM (inactive) |
| COc1cccc(-c2cnc3c(NC=O)cc(-c4ccc(O)c(OC)c4)cn23)c1 | 5.89 µM |
| COCCn1nnnc1CN(CCc1ccccc1)Cc1cc2cc(OC)ccc2[nH]c1=O | 5.12 µM |
| COc1cc(NC(=O)c2ccco2)c(OC)cc1NC(=O)c1cc(OC)c(OC)c(OC)c1 | 11.3 µM (inactive) |
| Cc1cc(C)cc(OCC(=O)Nc2cccc(-c3nc4ncccc4o3)c2)c1 | > 79 µM (inactive) |
| NC(=O)c1nsc(C(=O)N(c2ccccc2F)C(C(=O)NCc2ccccc2)c2ccc(O)cc2)c1N (configuration not stated) | 0.75 µM |
| Cc1cccc(NC(=O)c2nc[nH]c2C(=O)NCCCCCCNC(=O)c2[nH]cnc2C(=O)Nc2cccc(C)c2)c1 | > 79 µM (inactive) |
| CCOc1ccccc1Nc1nnc(SCc2nnc(-c3cc(OC)c(OC)c(OC)c3)o2)s1 | 9.01 µM |
| CCOC(=O)c1c(C)[nH]c(O)c1C=Nc1ccc(Cl)cc1 | 34.4 µM (inactive) |
| CC(=O)c1ccc(-c2cnc3c(NC=O)cc(-c4ccc(C(=O)NC5CC5)cc4)cn23)cc1 | 3.38 µM |
| O=C(Nc1ccc(C(=O)N2CCOCC2)cc1)c1cnn2c(C(F)F)cc(-c3ccccc3)nc12 | 2.8 µM |
| CC1Nc2ncnc(N3CCN(c4ccccc4)CC3)c2N(Cc2ccc(Cl)cc2)C1=O (configuration not stated) | 5.41 µM |
| O=C(CSc1nnc(Cc2cccs2)n1CCc1ccccc1)N1CCCc2ccccc21 | > 79 µM (inactive) |
| COc1cc(/C=C/c2nc3ccccc3c(=O)n2-c2ccccc2O)ccc1O | 9.9 µM |
| O=C(CNC(=O)c1[nH]cnc1C(=O)NC(c1ccccc1)c1ccccc1)OCc1ccccc1 | 10.1 µM (inactive) |
| COc1ccc(C(C(=O)NCc2ccccc2)N(Cc2cccs2)C(=O)c2cnccn2)cc1 (configuration not stated) | 25 µM (inactive) |
| COc1ccc(N/C=C(\C#N)c2nc3ccccc3n2C)c(OC)c1 | 3.73 µM |
| CCOC(=O)c1c(C)[nH]c(C)c1C(=O)COc1ncnc2cc([N+](=O)[O-])ccc12 | 11.1 µM (inactive) |
| CCOC(=O)c1ccc(-c2ccc3ncnc(NCc4csc(C)n4)c3c2)o1 | > 79 µM (inactive) |
| Cc1ccc(Cn2c(CCNc3nc(-c4ccc(Cl)c([N+](=O)[O-])c4)cs3)nc3cc(C(=O)NCCCO)ccc32)cc1 | 1.48 µM |
| C[C@@H]1CN([C@H](C)CO)S(=O)(=O)c2ccc(C#Cc3ccccc3F)cc2O[C@H]1CN(C)C(=O)c1ccc2c(c1)OCO2 | > 79 µM (inactive) |
| CCOC(=O)c1nc(Nc2ccc(C(=O)OC)cc2)c2ccccc2n1 | 6.89 µM |

| Structure (SMILES) | IC50 |
| --- | --- |
| COC(=O)c1cc2c(-c3ccccc3)cc3ccccn3c-2c1C(=O)OC | 6.44 µM |
| c1cc2[nH]snc2c2nc(C3CC3)nc12 | 7.56 µM |
| CN(CC1COc2ccccc2O1)c1nc(-c2cccnc2)nc2ccccc12 (configuration not stated) | 25.9 µM (inactive) |
| COc1ccccc1NC(=O)COc1ccc(/C=N/NC(=O)c2cccnc2)cc1 | 9.9 µM |
| O=C(Nc1cccc(Cl)c1)c1nc[nH]c1C(=O)NCCCNC(=O)c1[nH]cnc1C(=O)Nc1cccc(Cl)c1 | 1.36 µM |
| O=C1OCCN1C(=O)[C@H]1[C@H](c2ccc([N+](=O)[O-])cc2)C(c2ccc(F)cc2)=NN1c1ccc(Br)cc1 | 3.09 µM |
| Cc1ccc(CN(C(=O)CNC(=O)c2cccs2)C(C(=O)NCC2CCCO2)c2ccccc2)cc1 (configuration not stated) | 14.9 µM (inactive) |
| COc1ccc(-c2ccc3[nH]c4c(c3c2)CCN2C[C@H]3[C@H](C)ON(C)[C@H]3C[C@@H]42)cc1 | > 79 µM (inactive) |
| COc1ccc(-c2nn(-c3ccccc3)cc2C(=O)Nc2nccs2)cc1 | 8.75 µM |
| COc1cc(-c2cc(NC=O)c3ncc(-c4ccc(C(C)=O)cc4)n3c2)ccc1O | 3.61 µM |
| O=C/C(=C\Nc1ccccn1)c1nc2cc(Cl)ccc2o1 | 9.92 µM |
| CCCCCCn1c(C)nc2c(c1=O)c1nc3ccccc3nc1n2/N=C/c1ccco1 | 4.85 µM |
| COc1cccc(-c2nn3c(-c4ccccn4)nnc3s2)c1 | 6.65 µM |
| CCN(CC)S(=O)(=O)c1ccc(Nc2nc3ccccc3n3nnnc23)cc1 | 4.92 µM |
| Cc1ccc(NC(=O)c2nc[nH]c2C(=O)NCCCNC(=O)c2[nH]cnc2C(=O)Nc2ccc(C)cc2)cc1 | 1.1 µM |
| CC(C)(C)NC(=O)c1cc(NC(=O)c2cccs2)cc(NC(=O)c2cccs2)c1 | 8.4 µM |
| CCOC(=O)C(Cc1ccc(NC(=O)/C(=C/c2ccc(OC(C)=O)cc2)NC(C)=O)cc1)N1C(=O)c2ccccc2C1=O (configuration not stated) | 2.78 µM |
| COc1cc(-c2cc3nc(NCCc4ccc(S(N)(=O)=O)cc4)ccn3n2)cc(OC)c1OC | 12.1 µM (inactive) |
| COc1ccc2oc(C(=O)Nc3ccc(N4CCOCC4)cc3)c(C)c2c1 | > 79 µM (inactive) |
| COc1cc(-c2cc(NC(C)=O)c3ncc(-c4ccc(C(C)=O)cc4)n3c2)cc(OC)c1OC | 6.06 µM |
| COc1cc(/C=c2\s/c(=C(/C#N)C(=O)N3CCCC3)n(-c3ccccc3)c2=O)ccc1O | 3.2 µM |
| CCn1nc(C(=O)Nc2nc(-c3ccccn3)cs2)c2ccccc2c1=O | 3.37 µM |
| CCOCc1c(C(=O)NC2=Nc3ccccc3NC(CC)=C2C(=O)OCC)oc2ccccc12 | > 79 µM (inactive) |
